# Test results reported in publication PMC6174881 (Journal of medicinal chemistry, 2018).
# Several values for one entry are separate records, joined by “and”; a condition that tells them apart may be missing. Identical values can stand only once. Like-named read-outs stand apart in the source and are kept apart here. Square brackets hold non-standard residues; d marks the D form. Peptide text beside a SMILES is read from it. hPhe = N[C@@H](CCc1ccccc1)C(=O)O; Nle = CCCC[C@H](N)C(=O)O; Dap = NC[C@H](N)C(=O)O
# Legend:
# [1] = biological target: mMC4R (Mus musculus, UniProt P56450); settings: for fold increase in potency at the mMC4R compared to 1: calculated using Ki values from Schild analysis; for selectivity for the mMC4R over the mMC3R: calculated using antagonist Ki values
# [2] = biological target: mMC3R (Mus musculus, UniProt P33033); settings: for fold increase in potency at the mMC3R compared to 1: calculated using Ki values from Schild analysis
# [3] = biological target: mMC5R (Mus musculus, UniProt P41149); experiment: AlphaScreen cAMP assay, agonist/inverse agonist activity at mMC5R; settings: for mMC5R inverse agonist efficacy (−X%): relative to basal, apparent sigmoidal dose-response; for mMC5R activity in words: up to 100 μM
# [4] = biological target: T1, mMC1R (Mus musculus, UniProt Q01727); experiment: cell-based
# [5] = biological target: mouse melanocortin-1 receptor (mouse) (UniProt Q01727)
# [6] = biological target: T1, mMC1R; settings: for mMC1R agonist activity in words: up to 100 μM
# [7] = maximal stimulation relative to NDP-MSH, sigmoidal dose-response
# [8] = Schild analysis with agonist NDP-MSH, pA2 = −log[Ki]
# mMC4R, sequence (P56450 whole entry): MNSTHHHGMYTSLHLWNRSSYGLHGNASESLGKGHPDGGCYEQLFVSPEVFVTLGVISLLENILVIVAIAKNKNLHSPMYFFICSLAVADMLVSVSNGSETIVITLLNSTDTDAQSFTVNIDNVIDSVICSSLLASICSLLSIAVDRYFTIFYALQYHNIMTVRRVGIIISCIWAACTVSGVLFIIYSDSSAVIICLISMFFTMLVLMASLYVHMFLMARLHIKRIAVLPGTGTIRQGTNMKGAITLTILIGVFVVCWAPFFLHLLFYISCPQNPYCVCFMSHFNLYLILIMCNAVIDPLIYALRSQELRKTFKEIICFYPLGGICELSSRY
# mMC5R, sequence (P41149 whole entry): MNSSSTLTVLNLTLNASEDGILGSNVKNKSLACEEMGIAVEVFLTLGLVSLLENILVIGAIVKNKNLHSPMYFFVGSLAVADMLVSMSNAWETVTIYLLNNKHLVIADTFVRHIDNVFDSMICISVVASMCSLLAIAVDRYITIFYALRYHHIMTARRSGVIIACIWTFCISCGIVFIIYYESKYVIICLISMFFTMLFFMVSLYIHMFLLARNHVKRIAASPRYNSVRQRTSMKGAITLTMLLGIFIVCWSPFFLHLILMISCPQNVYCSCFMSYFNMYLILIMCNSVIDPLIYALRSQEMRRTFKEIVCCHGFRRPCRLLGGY
# mMC3R, sequence (P33033 whole entry): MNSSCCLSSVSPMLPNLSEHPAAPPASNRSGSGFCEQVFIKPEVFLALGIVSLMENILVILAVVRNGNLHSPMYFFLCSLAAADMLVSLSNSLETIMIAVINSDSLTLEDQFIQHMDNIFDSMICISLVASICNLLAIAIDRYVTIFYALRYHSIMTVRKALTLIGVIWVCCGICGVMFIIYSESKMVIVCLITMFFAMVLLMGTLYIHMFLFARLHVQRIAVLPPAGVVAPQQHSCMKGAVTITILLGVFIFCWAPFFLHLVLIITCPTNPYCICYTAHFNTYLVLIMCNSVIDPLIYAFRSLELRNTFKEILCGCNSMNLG
# T1 sequence (Q01727 whole entry): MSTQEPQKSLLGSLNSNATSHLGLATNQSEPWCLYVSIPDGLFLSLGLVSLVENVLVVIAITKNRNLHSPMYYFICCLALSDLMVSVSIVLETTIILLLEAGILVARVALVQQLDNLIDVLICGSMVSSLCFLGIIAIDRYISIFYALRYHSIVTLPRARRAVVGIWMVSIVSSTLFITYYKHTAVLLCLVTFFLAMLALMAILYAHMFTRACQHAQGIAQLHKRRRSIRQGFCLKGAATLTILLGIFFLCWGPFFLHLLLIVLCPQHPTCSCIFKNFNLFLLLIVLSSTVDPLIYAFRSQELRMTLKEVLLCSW
# mouse melanocortin-1 receptor (mouse), sequence (Q01727 whole entry): as above
compound,measurement,setting,value
"N=C(N)NCCC[C@@H]1NC(=O)[C@@H]2CCCN2C(=O)[C@H]2CCCN2C(=O)[C@H](Cc2ccccc2)NC(=O)[C@H](CO)NC(=O)[C@H](CC(N)=O)NC(=O)[C@H](Cc2ccccc2)NC(=O)[C@H](Cc2ccccc2)NC1=O [Compound 3, c[Pro-Arg-Phe-Phe-Asn-Ser-Phe-DPro]] (cyclo(RFFNSF[dP]P))",Kb,[1],7.94 nM
same,fold increase in potency at the mMC4R compared to 1,[1],≤ 10 fold
same,Kb,[2],794 nM
same,EC50,[3],6 ± 3 nM
same,mMC5R inverse agonist efficacy (−X%),[3],−14%
same,mMC5R activity in words,[3],inverse agonist activity was observed
same,EC50,[4],1200 ± 300 nM
"CCCC[C@@H]1NC(=O)[C@H](CO)NC(=O)[C@H](CCCNC(=N)N)NC(=O)[C@H](Cc2ccccc2)NC(=O)[C@H](Cc2ccccc2)NC(=O)[C@H](CCCNC(=N)N)NC(=O)[C@@H]2CCCN2C(=O)[C@H]2CCCN2C1=O [Compound 12, c[Pro-Arg-Phe-Phe-Arg-Ser-Nle-DPro]] (cyclo(RFFRS[Nle][dP]P))",fold increase in potency at the mMC4R compared to 1,[1],≥ 10 fold
cyclo(PRF[hPhe]RS[Nle][dP]),"agonist EC50, cAMP (AlphaScreen), HEK293 cells stably expressing mMC1R",[5],400 nM
"CCCC[C@@H]1NC(=O)[C@H](C)NC(=O)[C@H](CN)NC(=O)[C@H](CCc2ccccc2)NC(=O)[C@H](Cc2ccccc2)NC(=O)[C@H](CCCNC(=N)N)NC(=O)[C@@H]2CCCN2C(=O)[C@H]2CCCN2C1=O [Compound 18, c[Pro-Arg-Phe-hPhe-Dap-Ala-Nle-DPro]] (cyclo(RF[hPhe][Dap]A[Nle][dP]P))",mMC1R agonist activity in words,[6],did not possess agonist activity
"CCCC[C@@H]1NC(=O)[C@H](C)NC(=O)[C@H](CC(N)=O)NC(=O)[C@H](Cc2ccccc2)NC(=O)[C@H](Cc2ccccc2)NC(=O)[C@H](CCCNC(=N)N)NC(=O)[C@@H]2CCCN2C(=O)[C@H]2CCCN2C1=O [Compound 2, c[Pro-Arg-Phe-Phe-Asn-Ala-Nle-DPro]]",Kb,[1],1.26 nM
same,fold increase in potency at the mMC4R compared to 1,[1],≤ 10 fold
same,Kb,[2],251 nM
same,"mMC1R partial agonist activity (X%), receptor stimulated to given percent",[6]; [7],50%
same,EC50,[3],10 ± 6 nM
same,mMC5R inverse agonist efficacy (−X%),[3],−20%
same,mMC5R activity in words,[3],inverse agonist activity was observed
same,EC50,[4],1700 ± 300 nM
"CCCC[C@@H]1NC(=O)[C@H](C)NC(=O)[C@H](CCCNC(=N)N)NC(=O)[C@H](Cc2ccccc2)NC(=O)[C@H](Cc2ccccc2)NC(=O)[C@H](CCCNC(=N)N)NC(=O)[C@@H]2CCCN2C(=O)[C@H]2CCCN2C1=O [Compound 10, c[Pro-Arg-Phe-Phe-Arg-Ala-Nle-DPro]] (cyclo(RFFRA[Nle][dP]P))",fold increase in potency at the mMC4R compared to 1,[1],≥ 10 fold
same,fold increase in potency at the mMC3R compared to 1,[2],greater than 10 fold
"C[C@@H]1NC(=O)[C@H](CCCNC(=N)N)NC(=O)[C@H](Cc2ccccc2)NC(=O)[C@H](Cc2ccccc2)NC(=O)[C@H](CCCNC(=N)N)NC(=O)[C@@H]2CCCN2C(=O)[C@H]2CCCN2C(=O)[C@H](Cc2ccccc2)NC1=O [Compound 9, c[Pro-Arg-Phe-Phe-Arg-Ala-Phe-DPro]] (cyclo(RFFRAF[dP]P))",Kb,[1],2 nM
same,Kb,[2],39.8 nM
same,fold increase in potency at the mMC3R compared to 1,[2],greater than 10 fold
same,"mMC1R partial agonist activity (X%), receptor stimulated to given percent",[6],25%
same,EC50,[3],> 100000 nM
same,EC50,[4],600 ± 200 nM
"CCCC[C@@H]1NC(=O)[C@H](CO)NC(=O)[C@H](CCCNC(=N)N)NC(=O)[C@H](CCc2ccccc2)NC(=O)[C@H](Cc2ccccc2)NC(=O)[C@H](CCCNC(=N)N)NC(=O)[C@@H]2CCCN2C(=O)[C@H]2CCCN2C1=O [Compound 24, c[Pro-Arg-Phe-hPhe-Arg-Ser-Nle-DPro]] (cyclo(RF[hPhe]RS[Nle][dP]P))",fold increase in potency at the mMC3R compared to 1,[2],greater than 10 fold
same,"mMC1R partial agonist activity (X%), receptor stimulated to given percent",[6],25%
"CCCC[C@@H]1NC(=O)[C@H](C)NC(=O)[C@H](CCCNC(=N)N)NC(=O)[C@H](CCc2ccccc2)NC(=O)[C@H](Cc2ccccc2)NC(=O)[C@H](CCCNC(=N)N)NC(=O)[C@@H]2CCCN2C(=O)[C@H]2CCCN2C1=O [Compound 22, c[Pro-Arg-Phe-hPhe-Arg-Ala-Nle-DPro]] (cyclo(RF[hPhe]RA[Nle][dP]P))",fold increase in potency at the mMC3R compared to 1,[2],greater than 10 fold
same,mMC1R agonist activity in words,[6],did not possess agonist activity
"CCCC[C@@H]1NC(=O)[C@H](CO)NC(=O)[C@H](CN)NC(=O)[C@H](CCc2ccccc2)NC(=O)[C@H](Cc2ccccc2)NC(=O)[C@H](CCCNC(=N)N)NC(=O)[C@@H]2CCCN2C(=O)[C@H]2CCCN2C1=O [Compound 20, c[Pro-Arg-Phe-hPhe-Dap-Ser-Nle-DPro]] (cyclo(RF[hPhe][Dap]S[Nle][dP]P))",fold more potent than AGRP at the mMC4R,[1],3–6 fold
same,fold increase in potency at the mMC4R compared to 1,[1],25 fold
same,selectivity for the mMC4R over the mMC3R,[1],600–800 fold and 600 fold
same,mMC5R activity in words,[3],did not result in mMC5R stimulation
"CCCC[C@@H]1NC(=O)[C@H](C)NC(=O)[C@H](CC(N)=O)NC(=O)[C@H](CCc2ccccc2)NC(=O)[C@H](Cc2ccccc2)NC(=O)[C@H](CCCNC(=N)N)NC(=O)[C@@H]2CCCN2C(=O)[C@H]2CCCN2C1=O [Compound 14, c[Pro-Arg-Phe-hPhe-Asn-Ala-Nle-DPro]]",mMC1R agonist activity in words,[6],did not possess agonist activity
"CCCC[C@@H]1NC(=O)[C@H](CO)NC(=O)[C@H](CN)NC(=O)[C@H](Cc2ccccc2)NC(=O)[C@H](Cc2ccccc2)NC(=O)[C@H](CCCNC(=N)N)NC(=O)[C@@H]2CCCN2C(=O)[C@H]2CCCN2C1=O [Compound 8, c[Pro-Arg-Phe-Phe-Dap-Ser-Nle-DPro]] (cyclo(RFF[Dap]S[Nle][dP]P))",fold increase in potency at the mMC4R compared to 1,[1],≥ 10 fold
"CCCC[C@@H]1NC(=O)[C@H](CO)NC(=O)[C@H](CC(N)=O)NC(=O)[C@H](Cc2ccccc2)NC(=O)[C@H](Cc2ccccc2)NC(=O)[C@H](CCCNC(=N)N)NC(=O)[C@@H]2CCCN2C(=O)[C@H]2CCCN2C1=O [Compound 4, c[Pro-Arg-Phe-Phe-Asn-Ser-Nle-DPro]] (cyclo(RFFNS[Nle][dP]P))",fold increase in potency at the mMC4R compared to 1,[1],≤ 10 fold
same,mMC5R inverse agonist efficacy −X% @ 100 μM,"[3]; at 100 μM relative to basal, no sigmoidal dose-response",−35% @ 100μM
same,mMC5R activity in words,[3],inverse agonist activity was observed
"N=C(N)NCCC[C@@H]1NC(=O)[C@H](CCc2ccccc2)NC(=O)[C@H](Cc2ccccc2)NC(=O)[C@H](CCCNC(=N)N)NC(=O)[C@@H]2CCCN2C(=O)[C@H]2CCCN2C(=O)[C@H](Cc2ccccc2)NC(=O)[C@H](CO)NC1=O [Compound 23, c[Pro-Arg-Phe-hPhe-Arg-Ser-Phe-DPro]] (cyclo(RF[hPhe]RSF[dP]P))",fold increase in potency at the mMC3R compared to 1,[2],greater than 10 fold
"C[C@@H]1NC(=O)[C@H](CN)NC(=O)[C@H](Cc2ccccc2)NC(=O)[C@H](Cc2ccccc2)NC(=O)[C@H](CCCNC(=N)N)NC(=O)[C@@H]2CCCN2C(=O)[C@H]2CCCN2C(=O)[C@H](Cc2ccccc2)NC1=O [Compound 5, c[Pro-Arg-Phe-Phe-Dap-Ala-Phe-DPro]]",Kb,[2],63.1 nM
same,"mMC1R partial agonist activity (X%), receptor stimulated to given percent",[6]; [7],80%
same,EC50,[3],> 100000 nM
same,EC50,[4],1600 ± 400 nM
"CCCC[C@@H]1NC(=O)[C@H](CO)NC(=O)[C@H](CC(N)=O)NC(=O)[C@H](CCc2ccccc2)NC(=O)[C@H](Cc2ccccc2)NC(=O)[C@H](CCCNC(=N)N)NC(=O)[C@@H]2CCCN2C(=O)[C@H]2CCCN2C1=O [Compound 16, c[Pro-Arg-Phe-hPhe-Asn-Ser-Nle-DPro]] (cyclo(RF[hPhe]NS[Nle][dP]P))",fold more potent than AGRP at the mMC4R,[1],3–6 fold
same,Antagonist mMC4R pA2,[1]; [8],9.23
same,selectivity for the mMC4R over the mMC3R,[1],600–800 fold and 800 fold
same,Antagonist mMC3R pA2,[2]; [8],6.33
same,mMC5R activity in words,[3],did not result in mMC5R stimulation
